Experimental data reported in patent publication US20060045891A1, “Density-matched suspension vehicles and pharmaceutical suspensions” (priority 2004, published 2006).

Test: Suspension of spheres: sphere placed in the vehicle and centrifuged
Format: physicochemical
Settings: Lucite sphere density 1.20 g/cc; two minutes at 1000 rpm; no calcium carbonate particles
From the text: Precipitated calcium carbonate particles (density 2.71 g/cc and average particle size 0.7 microns) were mixed with Vitamin E (density 0.95 g/cc) at a particle weight fraction of 0.333 (15% by volume of dense particles) to create a suspending vehicle. According to equation (1), the density of the suspending vehicle is 1.21 g/cc.
A small Delrin sphere (density 1.35 g/cc, 3/32″ diameter) was placed in a first container holding the suspending vehicle.
A Lucite sphere (density 1.20 g/cc, 3/32″ diameter) was placed in a second container holding the suspending vehicle and centrifuged at 2000 rpm for 2 minutes.
In contrast, the Lucite sphere was placed in a third container of pure Vitamin E only and centrifuged for two minutes at 1000 rpm.

Vitamin E
behaviour of Lucite sphere in the vehicle after centrifuging: sank to the bottom of the container in less than one minute
